This experiment relates to Aedes aegypti. Put plainly: Insect repellency test (mosquitoes attempting to bite treated warmed membrane targets). Format: in vivo. The settings on record: for % Repellency initially / % Repellency After 1 Hour: neat compound, 30 microlitres on membrane, 27° C.; for % Repellency initially: 10 minute period directly after application; for % Repellency After 1 Hour: 10 minute period one hour after application. How it is done: Four test chambers were prepared using 300 mm 200 gauge […] tubing. The synthetic plastics tubing was attached to oblong stainless steel frames (150 mm by 150 mm by 900 mm) using double-sided adhesive tape. 200 mm squares of cotton netting were used to cover the ends of the chambers and were secured using adhesive tape. Mosquitoes (naive insects of the species Aedes aegypti, 4 to 7 days old) were introduced into each chamber 8 and the chambers 8 were kept in a separate room until the test was ready to begin. The exhaust fan which vents the room in which the test was performed was switched on. Four targets 5 (only two shown) were prepared as follows: double layers of semi-porous membrane were stretched over the open ends of four open ended glassware bulbs (diameter of open end 43 mm) and secured using elastic bands. Testing was carried out at 27° C. The membranes were kept moist and warmed above the ambient temperature throughout the test by passing a supply of water ([…]) through the glassware bulbs, so as to contact the inner surface of the membranes. […] This was repeated with two other membranes and the fourth membrane was left untreated as a control. The chambers 8 containing the mosquitoes were positioned so that each chamber had one netting end pressed against one of the targets 5. Glass partitions in the form of a cross 6 were used to separate each target 5 and chamber end from its neighbour. […] The separation of the membranes ensured that air passing over a particular membrane would pass through only one test chamber 8. The filters 2, 3 were used to remove volatile elements from the air passing over the mosquitoes; filter 2 contained activated charcoal and filter 3 contained a molecular sieve (Union Carbide type 5A zeolite). The material in each filter 2, 3 was held within the cells of a 25 mm thick sheet of aluminium honeycomb sandwiched between two sheets of stainless steel mesh held in an aluminium frame. The filters 2,3 were bolted by their frames to the inside of an aluminium tunnel such that air passing along the tunnel passed through the filters 2, 3. […] An electronic timer was used to project the date and time onto the screen, and the video recorder 14 was used to record the data. The mosquitoes in the test chambers 8 were activated by introduction of a human breath stimulus upwind of the targets 5 and the number of insects attempting to bite each target 5 over the next ten minute period was recorded. After ten minutes, the recording was stopped and the test chambers 8 removed from their position immediately downwind of the targets 5. […] The numbers of mosquitoes attempting to bite each of the targets 5 was noted every 10 seconds throughout each ten minute recording period. The 60 readings were used to produce a figure for the mean number of insects biting each target 5 during the ten minute test periods. The reading obtained for the untreated target 5 was used to give a measure of the basic avidity of the mosquitoes used in the test and this was taken into account when analysing the results. […] The above lotions were tested for insect repellency using the method outlined in Example 1.

For `CCN(CC)C(=O)c1cccc(C)c1` [DEET, N,N-diethyl-m-toluamide], the “% Repellency initially” value was 93% and the “% Repellency After 1 Hour” value came to 75%.
On to `CC1CCC(C(C)C)C(O)C1` (stereo not shown) [Menthol, menthol], for which the “% Repellency initially” value was 49% and the “% Repellency After 1 Hour” value is recorded as 25%.
With `CC1CCC(C(C)C)C(OC(=O)C2CCC(=O)N2)C1` (stereo not shown) [Menthyl 2-pyrrolidone-5-carboxylate], the “% Repellency initially” value turned out to be 80% and the “% Repellency After 1 Hour” value turned out to be 59%. Moreover, the “insect repellent effectiveness (in words)” value (compared with hydrolysis product menthol, maintained for at least 1 hour after application to a substrate) is on record as “more effective insect repellent than its hydrolysis product, menthol”.
